Experimental data reported in patent US20020137929A1, “1 - (3-heterocyclylphenyl) isothiourea, -isourea, -guanidine and -amidine herbicidal agents” (Intellectual Property Department, BASF Aktiengesellschaft, priority 1998, published 2002).

What was measured:
[1] = system: ABUTH (Velvetleaf); assay: Postemergence herbicidal evaluation; format: in vivo, Abutilon theophrasti; details: for ABUTH herbicidal rating: postemergence
Procedure, shortened: (§1)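 Two-week seedlings sprayed postemergence at 40 psi; formulation: 1:1 acetone/water, 0.5% TWEEN 20; application ≈0.0156–0.500 kg/ha. Greenhouse grow-out, then 0–9 visual scoring at 4–5 weeks.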

[2] = system: GALAP (Galium); assay: Postemergence herbicidal evaluation; format: in vivo, Galium aparine; details: for GALAP herbicidal rating: postemergence
Procedure, shortened: as §1

[3] = system: ECHCG (Barnyardgrass); assay: Postemergence herbicidal evaluation; format: in vivo, Echinochloa crus-galli; details: for ECHCG herbicidal rating: postemergence
Procedure, shortened: as §1

[4] = system: SETVI (Foxtail, Green); assay: Postemergence herbicidal evaluation; format: in vivo, Setaria viridis; details: for SETVI herbicidal rating: postemergence
Procedure, shortened: as §1

[5] = system: ORYSAT (Rice, Tebonnet); assay: Postemergence herbicidal evaluation; format: in vivo, Oryza sativa, (L.) Tebonnet; details: for ORYSAT herbicidal rating: postemergence
Procedure, shortened: as §1

[6] = system: IPOHE (Morningglory, Ivyleaf); assay: Preemergence herbicidal evaluation; format: in vivo, Ipomoea hederacea; details: rated 4-5 weeks after treatment
Procedure, shortened: (§2)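 Sown cups got a single aqueous acetone spray of test compound (roughly 0.0156–0.500 kg/ha) before seedlings emerged. Evaluation, 4–5 weeks on, used a 0–9 visual scale covering plant stand, vigor, size, malformation, chlorosis and general appearance compared with controls.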

[7] = system: TRZAWR (Wheat, Winter, cv Riband); assay: Preemergence herbicidal evaluation; format: in vivo, Triticum aestivum; details: rated 4-5 weeks after treatment
Procedure, shortened: as §2

[8] = system: ZEAMX (Corn, Field); assay: Preemergence herbicidal evaluation; format: in vivo, Zea mays; details: rated 4-5 weeks after treatment
Procedure, shortened: as §2

[9] = system: ECHORC (Watergrass (Calif.)); assay: Preemergence weed control under flooded paddy conditions; format: in vivo, Echinochloa oryzoides; details: rated 3-4 weeks after treatment
Procedure, shortened: (§3)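 Visual injury scored 0-9 against control three to four weeks post-treatment, greenhouse-grown. Application: acetone/water (50/50) solutions dosed directly into flood water (1.5-3 cm over silt loam, planted top 0.5 cm), roughly 0.0313 to 0.500 kg/ha active ingredient.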

[10] = system: CYPIR (Rice Flatsedge); assay: as above; format: in vivo, Cyperus iria; details: rated 3-4 weeks after treatment
Procedure, shortened: as §3

[11] = system: CYPIR (Rice Flatsedge); assay: Postemergence weed control under flooded paddy conditions; format: in vivo, Cyperus iria; details: postemergence weeds
Procedure, shortened: (§4)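 Injury ratings (0–9 scale covering stand, vigor, malformation, size, chlorosis and overall appearance versus control) were made three to four weeks after treatment. Test material, about 0.0313 to 0.500 kg/ha a.i. in 50/50 v/v aqueous/acetone, was added to flood water 1.5 to 3 cm deep over 3 to 5 cm weeds and 1.5 to 2.5 leaf rice.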

[12] = system: CYPSE (Flatsedge); assay: as above; format: in vivo, Cyperus serotinus; details: postemergence weeds
Procedure, shortened: as §4

[13] = system: SAGPY (Arrowhead (Pygmaea)); assay: as above; format: in vivo, Sagittaria pygmaea; details: postemergence weeds
Procedure, shortened: as §4

[14] = Rate 0.0313 kg/ha, rated 3 to 4 weeks after treatment
[15] = Rate 0.0625 kg/ha, rated 3 to 4 weeks after treatment
[16] = Rate 0.1250 kg/ha, rated 3 to 4 weeks after treatment
[17] = Rate 0.2500 kg/ha, rated 3 to 4 weeks after treatment
[18] = rate 0.1250 kg/ha, 3-4 weeks after treatment
[19] = rate 0.2500 kg/ha, 3-4 weeks after treatment

`COC(=O)[C@H](Cc1ccccc1)N1C(=O)CS/C1=N/c1cc(-n2c(=O)cc(C(F)(F)F)n(C)c2=O)c(F)cc1Cl` [Compound 72, Methyl α-benzyl-2-{{2-chloro-5-[3,6-dihydro-3-methyl-2,6-dioxo-4-(trifluoromethyl)-1(2H)-pyrimidinyl]-4-fluorophenyl]imino}-4-oxo-3-thiazolidineacetate, L-] gave an ABUTH herbicidal rating ([1]; rate 0.0158 kg/ha) of 9.0, an ABUTH herbicidal rating ([1]; rate 0.0315 kg/ha) of 9.0 and an ABUTH herbicidal rating ([1]; rate 0.0630 kg/ha) of 9.0. For the same compound, the GALAP herbicidal rating ([2]; rate 0.0158 kg/ha) was 6.0, the GALAP herbicidal rating ([2]; rate 0.0315 kg/ha) was 7.0 and the GALAP herbicidal rating ([2]; rate 0.0630 kg/ha) was 9.0. It also gave an ECHCG herbicidal rating ([3]; rate 0.0158 kg/ha) of 1.0, an ECHCG herbicidal rating ([3]; rate 0.0315 kg/ha) of 3.0 and an ECHCG herbicidal rating ([3]; rate 0.0630 kg/ha) of 3.0. It also gave an SETVI herbicidal rating ([4]; rate 0.0158 kg/ha) of 2.0, an SETVI herbicidal rating ([4]; rate 0.0315 kg/ha) of 4.0 and an SETVI herbicidal rating ([4]; rate 0.0630 kg/ha) of 2.0. The ORYSAT herbicidal rating ([5]; rate 0.0158 kg/ha) was 3.5, the ORYSAT herbicidal rating ([5]; rate 0.0315 kg/ha) was 3.5 and the ORYSAT herbicidal rating ([5]; rate 0.0630 kg/ha) was 4.5. The “Preemergence herbicidal rating IPOHE” value ([6]; rate 0.0156 kg/ha) was 0.0, the “Preemergence herbicidal rating IPOHE” value ([6]; rate 0.0313 kg/ha) was 0.0 and the “Preemergence herbicidal rating IPOHE” value ([6]; rate 0.0625 kg/ha) was 0.0. The “Preemergence herbicidal rating IPOHE” value ([6]; rate 0.1250 kg/ha) was 2.0, the “Preemergence herbicidal rating IPOHE” value ([6]; rate 0.2500 kg/ha) was 7.0 and the “Preemergence herbicidal rating TRZAWR” value ([7]; rate 0.0156 kg/ha) was 0.0. For the same compound, the “Preemergence herbicidal rating TRZAWR” value ([7]; rate 0.0313 kg/ha) was 0.0, the “Preemergence herbicidal rating TRZAWR” value ([7]; rate 0.0625 kg/ha) was 0.0 and the “Preemergence herbicidal rating TRZAWR” value ([7]; rate 0.1250 kg/ha) was 1.0. The “Preemergence herbicidal rating TRZAWR” value ([7]; rate 0.2500 kg/ha) was 2.0, the “Preemergence herbicidal rating ZEAMX” value ([8]; rate 0.0156 kg/ha) was 0.0 and the “Preemergence herbicidal rating ZEAMX” value ([8]; rate 0.0313 kg/ha) was 0.0. For the same compound, the “Preemergence herbicidal rating ZEAMX” value ([8]; rate 0.0625 kg/ha) was 0.0, the “Preemergence herbicidal rating ZEAMX” value ([8]; rate 0.1250 kg/ha) was 1.0 and the “Preemergence herbicidal rating ZEAMX” value ([8]; rate 0.2500 kg/ha) was 1.0. The “ECHORC herbicidal effect rating” value ([9]; 0.0313 kg/ha) was 9.0, the “ECHORC herbicidal effect rating” value ([9]; 0.0625 kg/ha) was 9.0 and the “ECHORC herbicidal effect rating” value ([9]; 0.1250 kg/ha) was 9.0. The “ECHORC herbicidal effect rating” value ([9]; 0.2500 kg/ha) was 9.0, the “CYPIR herbicidal effect rating” value ([10]; 0.0313 kg/ha) was 6.0 and the “CYPIR herbicidal effect rating” value ([10]; 0.0625 kg/ha) was 6.0. For the same compound, the “CYPIR herbicidal effect rating” value ([10]; 0.1250 kg/ha) was 7.0, the “CYPIR herbicidal effect rating” value ([10]; 0.2500 kg/ha) was 9.0 and the “Herbicidal rating CYPIR” value [11, 14] was 6.0. For the same compound, the “Herbicidal rating CYPIR” value [11, 15] was 6.0, the “Herbicidal rating CYPIR” value [11, 16] was 7.0 and the “Herbicidal rating CYPIR” value [11, 17] was 9.0. For the same compound, the “Herbicidal rating CYPSE” value [12, 14] was 0.0, the “Herbicidal rating CYPSE” value [12, 15] was 0.0 and the “Herbicidal rating CYPSE” value [12, 16] was 9.0. For the same compound, the “Herbicidal rating CYPSE” value [12, 17] was 9.0, the “Herbicidal rating SAGPY” value [13, 14] was 4.0 and the “Herbicidal rating SAGPY” value [13, 15] was 4.0. For the same compound, the “Herbicidal rating SAGPY” value [13, 16] was 4.0 and the “Herbicidal rating SAGPY” value [13, 17] was 4.0.
For `CCOC(=O)CCN1C(=O)CSC1=Nc1cc(-n2c(=O)cc(C(F)(F)F)n(C)c2=O)c(Cl)cc1Cl` [Compound 32, Ethyl 2-{{2,4-dichloro-5-[3,6-dihydro-3-methyl-2,6-dioxo-4-(trifluoromethyl)-1(2H)-pyrimidinyl]-phenyl}imino}-4-oxo-3-thiazolidinepropionate], the “Postemergence herbicidal rating ABUTH” value ([1]; Rate 0.0158 kg/ha) was 5.0, the “Postemergence herbicidal rating ABUTH” value ([1]; Rate 0.0313 kg/ha) was 9.0 and the “Postemergence herbicidal rating ABUTH” value ([1]; Rate 0.0625 kg/ha) was 9.0. The “Postemergence herbicidal rating ABUTH” value ([1]; Rate 0.1250 kg/ha) was 9.0, the “Postemergence herbicidal rating GALAP” value ([2]; Rate 0.0158 kg/ha) was 0.0 and the “Postemergence herbicidal rating GALAP” value ([2]; Rate 0.0313 kg/ha) was 0.0. For the same compound, the “Postemergence herbicidal rating GALAP” value ([2]; Rate 0.0625 kg/ha) was 0.0, the “Postemergence herbicidal rating GALAP” value ([2]; Rate 0.1250 kg/ha) was 2.0 and the “Postemergence herbicidal rating ECHCG” value ([3]; Rate 0.0158 kg/ha) was 0.0. The “Postemergence herbicidal rating ECHCG” value ([3]; Rate 0.0313 kg/ha) was 0.0, the “Postemergence herbicidal rating ECHCG” value ([3]; Rate 0.0625 kg/ha) was 0.0 and the “Postemergence herbicidal rating ECHCG” value ([3]; Rate 0.1250 kg/ha) was 2.0. For the same compound, the “Postemergence herbicidal rating SETVI” value ([4]; Rate 0.0158 kg/ha) was 0.0, the “Postemergence herbicidal rating SETVI” value ([4]; Rate 0.0313 kg/ha) was 0.0 and the “Postemergence herbicidal rating SETVI” value ([4]; Rate 0.0625 kg/ha) was 0.0. The “Postemergence herbicidal rating SETVI” value ([4]; Rate 0.1250 kg/ha) was 7.0, the “Postemergence herbicidal rating ORYSAT” value ([5]; Rate 0.0158 kg/ha) was 1.0 and the “Postemergence herbicidal rating ORYSAT” value ([5]; Rate 0.0313 kg/ha) was 2.0. For the same compound, the “Postemergence herbicidal rating ORYSAT” value ([5]; Rate 0.0625 kg/ha) was 3.0, the “Postemergence herbicidal rating ORYSAT” value ([5]; Rate 0.1250 kg/ha) was 3.5 and the “Preemergence herbicidal rating IPOHE” value ([6]; rate 0.0156 kg/ha) was 0.0. For the same compound, the “Preemergence herbicidal rating IPOHE” value ([6]; rate 0.0313 kg/ha) was 0.0, the “Preemergence herbicidal rating IPOHE” value ([6]; rate 0.0625 kg/ha) was 0.5 and the “Preemergence herbicidal rating IPOHE” value ([6]; rate 0.1250 kg/ha) was 0.5. For the same compound, the “Preemergence herbicidal rating IPOHE” value ([6]; rate 0.2500 kg/ha) was 0.0, the “Preemergence herbicidal rating IPOHE” value ([6]; rate 0.5000 kg/ha) was 1.0 and the “Preemergence herbicidal rating TRZAWR” value ([7]; rate 0.0156 kg/ha) was 0.0. The “Preemergence herbicidal rating TRZAWR” value ([7]; rate 0.0313 kg/ha) was 0.0, the “Preemergence herbicidal rating TRZAWR” value ([7]; rate 0.0625 kg/ha) was 0.0 and the “Preemergence herbicidal rating TRZAWR” value ([7]; rate 0.1250 kg/ha) was 0.0. For the same compound, the “Preemergence herbicidal rating TRZAWR” value ([7]; rate 0.2500 kg/ha) was 1.0, the “Preemergence herbicidal rating TRZAWR” value ([7]; rate 0.5000 kg/ha) was 3.0 and the “Preemergence herbicidal rating ZEAMX” value ([8]; rate 0.0156 kg/ha) was 0.0. The “Preemergence herbicidal rating ZEAMX” value ([8]; rate 0.0313 kg/ha) was 0.0, the “Preemergence herbicidal rating ZEAMX” value ([8]; rate 0.0625 kg/ha) was 0.0 and the “Preemergence herbicidal rating ZEAMX” value ([8]; rate 0.1250 kg/ha) was 0.5. For the same compound, the “Preemergence herbicidal rating ZEAMX” value ([8]; rate 0.2500 kg/ha) was 4.5, the “Preemergence herbicidal rating ZEAMX” value ([8]; rate 0.5000 kg/ha) was 6.0 and the “Herbicidal rating ECHORC” value ([9]; 0.1250 kg/ha) was 3.0. The “Herbicidal rating ECHORC” value ([9]; 0.2500 kg/ha) was 6.0, the “Herbicidal rating CYPIR” value ([10]; 0.1250 kg/ha) was 0.0 and the “Herbicidal rating CYPIR” value ([10]; 0.2500 kg/ha) was 0.0. The “Herbicidal rating CYPIR” value [11, 18] was 0.0, the “Herbicidal rating CYPIR” value [11, 19] was 0.0 and the “Herbicidal rating CYPSE” value [12, 18] was 0.0. For the same compound, the “Herbicidal rating CYPSE” value [12, 19] was 0.0, the “Herbicidal rating SAGPY” value [13, 18] was 0.0 and the “Herbicidal rating SAGPY” value [13, 19] was 0.0.
